Blank lines part the entries; values can stand above or below the compound they belong to.
Columns and labels:
Assay type in all cases: biochemical
[1] = target: T1, human leukocyte elastase (HLE) (Homo sapiens, UniProt P08246); assay: Inactivation of human leukocyte elastase (kobs/[I]); conditions: for HLE % inhibition: Table 1B footnote, [I]/[E] ratio of 200, 10 minute incubation period
T1 construct: purchased Elastin Products Co., Owensville, Mo
T1 sequence (P08246 30-247 limits assumed): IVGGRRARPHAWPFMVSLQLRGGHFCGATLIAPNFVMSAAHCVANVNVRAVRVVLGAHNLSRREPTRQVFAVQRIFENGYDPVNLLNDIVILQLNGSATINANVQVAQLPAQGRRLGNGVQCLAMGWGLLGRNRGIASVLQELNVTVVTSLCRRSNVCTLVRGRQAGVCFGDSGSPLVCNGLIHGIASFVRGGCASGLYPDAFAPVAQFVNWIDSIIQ
Source text: (§1) An in vitro assay can be used to screen compounds of the invention for the ability to reduce or inhibit serine proteinase activity. The human leukocyte elastase (HLE), cathepsin G (Cath G), and proteinase-3 assays have each been described (Groutas et al., J. Med. Chem. 32:1607-1611, 1989; Groutas et al., Arch. Biochem. Biophys. 294:144-146, 1992; Kao et al., J. Clin. Invest. 82:1963-1973, 1988, each incorporated by reference herein). The pseudo first-order inactivation rate constants (kobs) were obtained from plots of ln(vt /vo) vs t, and expressed in terms of the apparent second-order inactivation rate constant, kobs /[I] M^-1 s^-1 (Tables 1-7). Tables 1-7 disclose the activity of preferred compounds of the invention as inhibitors of HLE and Cath G. Table 7 discloses the activity of Compounds 4A (C) and 3E (D) as inhibitors of Proteinase-3 activity. Compounds (A) and (B) have been disclosed previously (Groutas et al., Bioorganic and Med. Chem. 1(4):273-277, 1993; Groutas et al., J. Med. Chem. 36:3178, 1993).
XII. Materials: Human leukocyte elastase was purchased from Elastin Products Co., Owensville, Mo.
(§2) Human leukocyte cathepsin G was obtained from Athens Research and Technology, Athens, Ga. Methoxysuccinyl Ala-Ala-Pro-Val p-nitroanilide and methoxysuccinyl Ala-Ala-Pro-Phe p-nitroanilide were purchased from Sigma Chemicals Co., St. Louis, Mo. Baker-analyzed 60-200 mesh silica gel was used for flash chromatography.

[2] = target: T2, cathepsin G (Cath G) (Homo sapiens, UniProt P08311); assay: Inactivation of human leukocyte cathepsin G (kobs/[I]); conditions: for kinact/KI: pH 7.5; for time-dependent loss of serine protease activity: FIG. 5, Cath G 1.33 uM, 0.1M HEPES pH 7.5, 10% DMSO
T2 construct: purchased Athens Research and Technology, Athens, Ga
T2 sequence (P08311 21-244 limits assumed): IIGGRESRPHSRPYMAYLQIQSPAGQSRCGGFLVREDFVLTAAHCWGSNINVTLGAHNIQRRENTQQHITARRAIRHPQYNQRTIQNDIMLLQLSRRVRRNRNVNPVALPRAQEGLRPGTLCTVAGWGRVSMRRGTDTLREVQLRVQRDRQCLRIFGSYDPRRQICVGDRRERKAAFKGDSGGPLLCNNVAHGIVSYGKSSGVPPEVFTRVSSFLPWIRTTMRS
Procedure: Human leukocyte cathepsin G (1.33 uM) is incubated with compound 8 (133 uM) (a) or compound 10 (13.3 uM) (b) in 0.1M HEPES buffer, pH 7.5, and 10% DMSO. Aliquots were withdrawn at different time intervals and assayed for enzymatic activity using methoxysuccinyl Ala-Ala-Pro-Phe p-nitroanilide.
Human leukocyte cathepsin G (1.48 μM was incubated with inhibitor 5A (1.48 μM in 0.1M HEPES buffer, pH 7.5, and 1% DMSO. Aliquots were withdrawn at different time intervals and assayed for enzymatic activity using methoxysuccinyl Ala-Ala-Pro-Phe p-nitroanilide.
as §1, §2

[3] = target: T3, Proteinase-3 (Homo sapiens, UniProt P24158); assay: Proteinase-3 inhibition; parameters: % Proteinase-3 Inhibition: concentration or dose not given beside the values; conditions: Table 7
T3 sequence (P24158 28-248 limits assumed): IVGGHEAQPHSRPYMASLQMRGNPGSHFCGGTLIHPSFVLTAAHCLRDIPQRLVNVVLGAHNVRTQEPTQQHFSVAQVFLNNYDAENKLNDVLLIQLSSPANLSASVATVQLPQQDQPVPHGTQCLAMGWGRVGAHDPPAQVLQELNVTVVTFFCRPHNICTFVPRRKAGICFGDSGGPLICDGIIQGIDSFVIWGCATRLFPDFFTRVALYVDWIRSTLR
Source text: as §1

SMILES: O=C(/C=C/Sc1ccccc1)OCN1C(=O)C(Cc2ccccc2)CS1(=O)=O (stereo not drawn) [Compound 7C]
kinact/KI ([1]; Table 4): 240 M⁻¹ s⁻¹ | kinact/KI ([2]; Table 4): 5520 M⁻¹ s⁻¹

SMILES: C[C@H](NC(=O)OCc1ccccc1)C(=O)OCN1C(=O)C(Cc2ccccc2)CS1(=O)=O (stereo partly drawn) [Compound 8B]
kinact/KI ([1]; Table 3): 50 M⁻¹ s⁻¹ | kinact/KI ([2]; Table 3): 2770 M⁻¹ s⁻¹

SMILES: O=C(C=CS(=O)(=O)c1ccccc1)OCN1C(=O)C(Cc2ccccc2)CS1(=O)=O (stereo not drawn) [Compound 8C]
kinact/KI ([1]; Table 4): 380 M⁻¹ s⁻¹ | kinact/KI ([2]; Table 4): 2770 M⁻¹ s⁻¹

SMILES: C=C(N1C(=O)C(Cc2ccccc2)CS1(=O)=O)S(=O)(=O)c1ccccc1 (stereo not drawn) [Compound 9, 4-Benzyl-2-(1-phenylsulfonylvinyl)isothiazolidin-3-one 1,1-dioxide]
HLE % inhibition [1]: 20% | kinact/KI ([2]; Table 1B): 340 M⁻¹ s⁻¹

SMILES: C[C@@H](NC(=O)OCc1ccccc1)C(=O)OCN1C(=O)C(Cc2ccccc2)CS1(=O)=O (stereo partly drawn) [Compound 9B]
kinact/KI ([1]; Table 3): 300 M⁻¹ s⁻¹ | kinact/KI ([2]; Table 3): 1820 M⁻¹ s⁻¹

SMILES: C[C@@H](NC(=O)OC(C)(C)C)C(=O)OCN1C(=O)C(Cc2ccccc2)CS1(=O)=O (stereo partly drawn) [Compound 10B]
kinact/KI ([1]; Table 3): 310 M⁻¹ s⁻¹ | kinact/KI ([2]; Table 3): 560 M⁻¹ s⁻¹

SMILES: O=C(CNC(=O)OCc1ccccc1)OCN1C(=O)C(Cc2ccccc2)CS1(=O)=O (stereo not drawn) [Compound 11B]
kinact/KI ([1]; Table 3): 220 M⁻¹ s⁻¹ | kinact/KI ([2]; Table 3): 2680 M⁻¹ s⁻¹

SMILES: CC(C)(C)OC(=O)CN1[C@@H](Cc2ccccc2)C(=O)N(CF)S1(=O)=O [drawing 93 R = CH2 COOt-BOC]
% Proteinase-3 Inhibition [3]: 33%

SMILES: CN1C(Cc2ccccc2)C(=O)N(CF)S1(=O)=O (stereo not drawn) [drawing 93 R = methyl]
% Proteinase-3 Inhibition [3]: 55%

SMILES: O=C1c2ccccc2S(=O)(=O)N1CF [drawing 94]
% Proteinase-3 Inhibition [3]: 79%

SMILES: O=C1C(Cc2ccccc2)CS(=O)(=O)N1CF (stereo not drawn) [drawing 96]
Proteinase-3 Inhibition (in words) [3]: inactive

Second part, led by results:

kinact/KI ([1]; Table 1B): 50 M⁻¹ s⁻¹ | kinact/KI ([2]; Table 1B): 420 M⁻¹ s⁻¹
SMILES: O=C1C(Cc2ccccc2)CS(=O)(=O)N1C(CF)S(=O)(=O)c1ccccc1 (stereo not drawn) [Compound 8, 4-Benzyl-2-(2-fluoro-1-phenylsulfonylethyl) isothiazolidin-3-one 1,1-dioxide]
time-dependent loss of serine protease activity ([2]; inhibitor 133 uM): time-dependent loss of serine protease activity

HLE % inhibition [1]: 12% | kinact/KI ([2]; Table 1B): 960 M⁻¹ s⁻¹
SMILES: O=C1C(Cc2ccccc2)CS(=O)(=O)N1CS(=O)(=O)c1ccccc1 (stereo not drawn) [Compound 10, 4-Benzyl-2-(1-phenylsulfonylmethyl)isothiazolidin-3-one 1,1-dioxide]
time-dependent loss of serine protease activity ([2]; inhibitor 13.3 uM): time-dependent loss of serine protease activity

% Proteinase-3 Inhibition [3]: 86%
SMILES: CC(C)CC1C(=O)N(CS(=O)(=O)c2ccccc2)S(=O)(=O)N1Cc1ccccc1 (stereo not drawn) [drawing 92 R = benzyl]

% Proteinase-3 Inhibition [3]: 84%
SMILES: CC(C)CC1C(=O)N(CS(=O)(=O)c2ccccc2)S(=O)(=O)N1C (stereo not drawn) [drawing 92 R = methyl]

% Proteinase-3 Inhibition [3]: 43%
SMILES: O=C1C(Cc2ccccc2)N(Cc2ccccc2)S(=O)(=O)N1CF (stereo not drawn) [drawing 93 R = benzyl]
